Structures can show the parent of a compound that is named as a salt.
Assay: Solubility (Cs) of Compound (1) solid forms in FESSIF
Assay type: physicochemical
Settings: FESSIF (fed state simulated intestinal fluid)
Text: Simulated human intestinal media suitable for the invention can be found in the art, for example, those described in Jantratid, et al., “Dissolution Media Simulating Conditions in the Proximal Human Gastrointestinal Tract: An Update,” Pharmaceutical Research, 25(7), 2008. In one embodiment, a human fed state simulated intestinal fluid ([…]) is employed in the invention. A typical […] includes sodium hydroxide, citric acid, sodium chloride, sodium taurocholate, and lecithin (L-Alpha-Phosphatidyl Choline). A specific example is described in Example 9 below. […] [table]

Row | Structure (SMILES) | solubility of Compound (1) in FESSIF
1 | CC(C)(C)C#Cc1cc(N(C(=O)[C@H]2CC[C@H](C)CC2)[C@H]2CC[C@H](O)CC2)c(C(=O)O)s1 [Form A of Compound (1), 5-(3,3-Dimethyl-but-1-ynyl)-3-[(trans-4-hydroxy-cyclohexyl)-(trans-4-methyl-cyclohexanecarbonyl)-amino]-thiophene-2-carboxylic acid] | 900 µg/mL
2 | CC(C)(C)C#Cc1cc(N(C(=O)[C@H]2CC[C@H](C)CC2)[C@H]2CC[C@H](O)CC2)c(C(=O)O)s1 [Form M of Compound (1), 5-(3,3-Dimethyl-but-1-ynyl)-3-[(trans-4-hydroxy-cyclohexyl)-(trans-4-methyl-cyclohexanecarbonyl)-amino]-thiophene-2-carboxylic acid] | 825 µg/mL
3 | CC(C)(C)C#Cc1cc(N(C(=O)[C@H]2CC[C@H](C)CC2)[C@H]2CC[C@H](O)CC2)c(C(=O)O)s1 [tromethamine salt of Compound (1), 5-(3,3-Dimethyl-but-1-ynyl)-3-[(trans-4-hydroxy-cyclohexyl)-(trans-4-methyl-cyclohexanecarbonyl)-amino]-thiophene-2-carboxylic acid] | 2600 µg/mL

— patent publication US20140235705A1, “FORMULATIONS OF THIOPHENE COMPOUNDS” (Vertex Pharmaceuticals Incorporated, priority 2011, published 2014)
